Measurements as given in patent publication US20230313199A1, “TARGET FOR MODULATING BODY MASS” (Massachusetts Institute of Technology, priority 2020, published 2023).

Assays:
[1] = target: T1, endogenous MFSD7C and HMOX1 (Mus musculus, UniProt Q91X85); assay: Co-IP of endogenous MFSD7C and HMOX1 in bone marrow-derived macrophages; type: cell-based; details: heme treatment
T1 construct: Co-IP and immunoblotting analysis of endogenous MFSD7C with ATP5h, SERCA2b and HMOX1 in bone marrow-derived macrophages; endogenous in cells; host or cells: bone marrow-derived macrophages from Mfsd7c fl/fl C57BL/6 mice
Protocol: NTD was incubated with heme and run on Superdex 75 gel filtration column. The flow through was measured for absorbance at 230 nm (gray), 380 nm (blue), and 415 nm (green). Absorbance intensity was normalized to maximum value. […] Heme (100 μM) absorption was set to zero. […] Wildtype (WT) and mutant (Mut) peptide sequences are shown. […] Shown are representative data from five separate experiments. […] Shown are immunoblots of MFSD7C, ATP5h, SERCA2b, and HMOX1 on whole lysates or immunoblots of MFSD7C on anti-ATP5h, anti-SERCA2b and anti-HMOX1 immunoprecipitates. Representative data from one from three experiments are shown. […] Shown are representative data from three separate experiments. WCE: whole cell extract, Sup: supernatant, Mito: 10,000 g mitochondrial fraction. […] THP-1 cells were stained with MitoTracker (green), fixed and permeabilized, and then stained with rabbit polyclonal antibody specific for the C-terminus of MFSD7C, followed with Alexa Fluor® 594-labelled goat anti-rabbit antibody (red). Nuclei were labeled using DAPI (blue). […]
Differentiation of bone marrow-derived macrophage (BMDM). […] Cells were resuspended in DMEM media containing 10% FBS, 2 mM L-glutamine, 2 mM pyruvate, non-essential amino acids (100 μM each), 0.55 mM 2-mercaptoethanol, penicillin/streptomycin), passed through a 40 μm Falcon cell strainer (VWR) to remove large aggregates, and counted. […]

4B8^FL cells = assay: FPT intensity in 4B8 cells complemented with full length MFSD7C; type: cell-based, human; details: 40 μM heme 1 hour
Protocol: FIGS. 4A-4H show NTD of MFSD7C mediates heme effect on mitochondrial respiration. FIGS. 4A-4C show comparison of basal OCR (FIG. 4A), maximal OCR (FIG. 4B) and ECAR (FIG. 4C) of THP-1, 4B8, and 4B8^FL and 4B8^ΔN cells treated with vehicle or heme for 1 hour (n=18 separate experiments). […] Cells were incubated with FPT for 6 hrs, washed and reseeded in poly-lysine coated glass bottom dishes. After cells attached to the glass, medium containing 40 μM heme was added. Cells in the same field were imaged immediately and again 1 hour later. Relative FPT fluorescent intensities, normalized to THP-1, from three experiments are shown. (n=3 independent experiments). […] THP-1 cells were co-cultured with 4B8, 4B8^FL, or 4B8^ΔN in FPT solution for 6 hrs, washed and reseeded in poly-lysine coated glass bottom dishes. […] THP-1, 4B8, 4B8^FL and 4B8^ΔN cells were treated with vehicle or heme for 1 hour and MMP was measured by using JC-10 Mitochondrial Membrane Potential Assay Kit followed by flow cytometry. […] Shown are representative Western blotting data (FIG. 4G) and quantification of band intensities from n=3 independent experiments (FIG. 4H). P-values were calculated using two-way ANOVA (*p<0.05, **p<0.01, ***p<0.005). […]
In the second approach, we used fluorescent polymeric thermometer (FPT), which we synthesized in-house (see above). […] Then the fluorescence intensities were determined by a flow cytometer.

[2] = test system: interactions between MFSD7C^ΔN and CYC1, NDUFA4, COX4i1, ATP5h and ATP5c1; assay: Co-IP of HA-tagged MFSD7C^ΔN with ETC components; type: cell-based, murine; details: heme treatment before lysis
Protocol: FIGS. 4A-4H show NTD of MFSD7C mediates heme effect on mitochondrial respiration. FIGS. 4A-4C show comparison of basal OCR (FIG. 4A), maximal OCR (FIG. 4B) and ECAR (FIG. 4C) of THP-1, 4B8, and 4B8^FL and 4B8^ΔN cells treated with vehicle or heme for 1 hour (n=18 separate experiments). […] Cells were incubated with FPT for 6 hrs, washed and reseeded in poly-lysine coated glass bottom dishes. After cells attached to the glass, medium containing 40 μM heme was added. Cells in the same field were imaged immediately and again 1 hour later. Relative FPT fluorescent intensities, normalized to THP-1, from three experiments are shown. (n=3 independent experiments). […] THP-1 cells were co-cultured with 4B8, 4B8^FL, or 4B8^ΔN in FPT solution for 6 hrs, washed and reseeded in poly-lysine coated glass bottom dishes. Cells were imaged by confocal laser-scanning microscopy. […] Representative images from three experiments are shown. Scale bar: 10 μm. […] THP-1, 4B8, 4B8^FL and 4B8^ΔN cells were treated with vehicle or heme for 1 hour and MMP was measured by using JC-10 Mitochondrial Membrane Potential Assay Kit followed by flow cytometry. […] Shown are representative Western blotting data (FIG. 4G) and quantification of band intensities from n=3 independent experiments (FIG. 4H). P-values were calculated using two-way ANOVA (*p<0.05, **p<0.01, ***p<0.005). […]

T1 sequence (Q91X85 whole entry): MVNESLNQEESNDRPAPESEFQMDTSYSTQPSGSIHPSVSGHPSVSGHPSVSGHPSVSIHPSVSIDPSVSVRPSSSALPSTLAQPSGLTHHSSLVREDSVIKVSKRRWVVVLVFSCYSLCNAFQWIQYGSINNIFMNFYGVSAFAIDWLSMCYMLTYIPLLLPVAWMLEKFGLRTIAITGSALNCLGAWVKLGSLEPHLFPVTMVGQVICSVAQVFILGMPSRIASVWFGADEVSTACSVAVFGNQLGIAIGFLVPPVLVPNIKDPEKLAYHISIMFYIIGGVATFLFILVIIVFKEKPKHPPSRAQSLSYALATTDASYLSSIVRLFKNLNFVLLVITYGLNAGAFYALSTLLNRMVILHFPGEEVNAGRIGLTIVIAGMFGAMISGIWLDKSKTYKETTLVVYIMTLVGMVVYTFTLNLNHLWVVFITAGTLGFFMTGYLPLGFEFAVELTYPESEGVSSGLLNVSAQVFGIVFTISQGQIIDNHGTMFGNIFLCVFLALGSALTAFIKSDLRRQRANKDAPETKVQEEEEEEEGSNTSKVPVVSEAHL
T1 sequence (P14901 whole entry partner): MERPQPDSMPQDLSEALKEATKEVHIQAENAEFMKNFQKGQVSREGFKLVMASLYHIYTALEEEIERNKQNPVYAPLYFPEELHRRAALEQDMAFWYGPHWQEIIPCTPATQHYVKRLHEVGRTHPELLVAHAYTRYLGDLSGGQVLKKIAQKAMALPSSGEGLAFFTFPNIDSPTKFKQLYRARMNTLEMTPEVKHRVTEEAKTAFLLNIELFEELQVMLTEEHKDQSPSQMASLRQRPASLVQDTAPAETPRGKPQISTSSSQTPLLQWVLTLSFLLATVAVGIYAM

## C=CC1=C(C)c2cc3[n-]c(cc4[n-]c(cc5nc(cc1n2)C(C)=C5C=C)c(C)c4CCC(=O)O)c(CCC(=O)O)c3C.[Fe+2] [heme]
[1]
  interactions between endogenous MFSD7C and HMOX1 (co-IP): enhanced
4B8^FL cells
  FPT intensity: increased
[2]
  disruption of interactions between MFSD7C^ΔN and ETC components (co-IP): failed to disrupt
